Target: human, KCNT1 (Homo sapiens (Human), UniProt Q5JUK3)
Experiment: FLIPR Tl/K Flux Assay
Format: cell-based
Settings: HEK293 cells stably expressing human KCNT1; Tl+ flux stimulated with EC80 of agonist Loxapine
Outline: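 HEK293 cells stably expressing human KCNT1 were loaded with FLIPR potassium dye in HEPES/HBSS pH 7.4 with 5 mM probenecid, 1 h at 25 °C, then given test compound for 30 min at 25 °C. Tl+ flux was triggered with chloride-free buffer containing Tl+ and EC80 loxapine and read 160 s. IC50 came from Hill fits of % inhibition.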

Chain of human, KCNT1 (Q5JUK3 whole entry): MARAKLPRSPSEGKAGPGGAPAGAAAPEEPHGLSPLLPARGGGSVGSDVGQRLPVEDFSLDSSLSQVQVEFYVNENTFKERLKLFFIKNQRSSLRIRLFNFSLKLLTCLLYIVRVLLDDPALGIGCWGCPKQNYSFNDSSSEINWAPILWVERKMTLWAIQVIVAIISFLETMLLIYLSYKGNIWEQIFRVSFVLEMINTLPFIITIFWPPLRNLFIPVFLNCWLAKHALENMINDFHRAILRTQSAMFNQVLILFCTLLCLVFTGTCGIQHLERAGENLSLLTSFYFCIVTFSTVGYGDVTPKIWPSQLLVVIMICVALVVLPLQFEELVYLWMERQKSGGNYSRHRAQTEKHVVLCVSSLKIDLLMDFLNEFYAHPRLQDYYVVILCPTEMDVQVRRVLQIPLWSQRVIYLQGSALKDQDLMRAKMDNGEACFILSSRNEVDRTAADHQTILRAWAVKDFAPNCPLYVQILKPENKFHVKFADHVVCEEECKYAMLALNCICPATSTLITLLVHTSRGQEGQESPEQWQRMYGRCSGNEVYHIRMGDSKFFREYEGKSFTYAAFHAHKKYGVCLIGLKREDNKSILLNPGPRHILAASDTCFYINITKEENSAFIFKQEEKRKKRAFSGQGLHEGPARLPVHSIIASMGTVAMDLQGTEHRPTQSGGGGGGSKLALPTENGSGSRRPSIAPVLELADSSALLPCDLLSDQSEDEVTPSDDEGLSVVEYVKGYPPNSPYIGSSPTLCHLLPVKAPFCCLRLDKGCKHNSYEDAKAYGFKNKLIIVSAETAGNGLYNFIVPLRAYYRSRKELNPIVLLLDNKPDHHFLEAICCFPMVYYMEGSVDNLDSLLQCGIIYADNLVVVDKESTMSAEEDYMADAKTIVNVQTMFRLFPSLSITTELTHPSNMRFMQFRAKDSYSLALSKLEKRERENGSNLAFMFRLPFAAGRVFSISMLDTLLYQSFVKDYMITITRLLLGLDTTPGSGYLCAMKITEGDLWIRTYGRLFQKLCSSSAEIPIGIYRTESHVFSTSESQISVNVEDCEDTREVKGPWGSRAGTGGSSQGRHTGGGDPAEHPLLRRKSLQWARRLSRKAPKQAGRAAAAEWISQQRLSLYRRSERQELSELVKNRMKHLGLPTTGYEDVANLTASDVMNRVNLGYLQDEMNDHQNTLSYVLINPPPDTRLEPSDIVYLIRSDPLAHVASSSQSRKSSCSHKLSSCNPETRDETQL

IC50, < 250 nM:
O=C(N[C@H]1CCn2nc(-c3cc(C(F)(F)F)ncc3F)cc21)c1ccnc(OC(F)F)c1 [Compound I-547a, (S)-2-(Difluoromethoxy)-N-(2-(5-fluoro-2-(trifluoromethyl)pyridin-4-yl)-5,6-dihydro-4H-pyrrolo[1,2-b]pyrazol-4-yl)isonicotinamide]
Cn1nc(C(F)(F)F)nc1C(=O)N[C@H]1CCn2nc(-c3cc(C(F)(F)F)ncc3F)cc21 [Compound I-548a, (S)—N-(2-(5-Fluoro-2-(trifluoromethyl)pyridin-4-yl)-5,6-dihydro-4H-pyrrolo[1,2-b]pyrazol-4-yl)-1-methyl-3-(trifluoromethyl)-1H-1,2,4-triazole-5-carboxamide]
O=C(N[C@H]1CCn2nc(-c3cc(C(F)(F)F)ncc3F)cc21)c1ccn2nccc2c1 [Compound I-549a]
O=C(N[C@H]1CCn2nc(-c3ccnc(C(F)(F)F)c3)cc21)c1ccn2nccc2c1 [Compound I-550a, (S)-N-(2-(2-(Trifluoromethyl)pyridin-4-yl)-5,6-dihydro-4H-pyrrolo[1,2-b]pyrazol-4-yl)pyrazolo[1,5-a]pyridine-5-carboxamide]
Cn1nc(C(F)(F)F)nc1C(=O)N[C@H]1CCCn2nc(-c3ccnc(C(C)(F)F)c3)cc21 [Compound I-551a, (S)-N-(2-(2-(1,1-Difluoroethyl)pyridin-4-yl)-4,5,6,7-tetrahydropyrazolo[1,5-a]pyridin-4-yl)-1-methyl-3-(trifluoromethyl)-1H-1,2,4-triazole-5-carboxamide]
O=C(N[C@H]1CCn2nc(-c3cc(C(F)(F)F)ncc3F)cc21)C12CC(F)(C1)C2 [Compound I-552a, (S)-3-Fluoro-N-(2-(5-fluoro-2-(trifluoromethyl)pyridin-4-yl)-5,6-dihydro-4H-pyrrolo[1,2-b]pyrazol-4-yl)bicyclo[1.1.1]pentane-1-carboxamide]
O=C(N[C@H]1CCc2nn(-c3ccnc(C(F)(F)F)c3)cc21)C12CC(C(F)(F)F)(C1)C2 [Compound I-553a, (S)-3-(Trifluoromethyl)-N-(2-(2-(trifluoromethyl)pyridin-4-yl)-2,4,5,6-tetrahydrocyclopenta[c]pyrazol-4-yl)bicyclo[1.1.1]pentane-1-carboxamide]
O=C(N[C@H]1CCCc2oc(-c3cc(C(F)(F)F)ncc3F)nc21)c1cccc(C(F)(F)F)c1 [Compound I-554a, (S)—N-(2-(5-Fluoro-2-(trifluoromethyl)pyridin-4-yl)-4,5,6,7-tetrahydrobenzo[d]oxazol-4-yl)-3-(trifluoromethyl)benzamide]
Cc1nn(C(F)(F)F)cc1C(=O)N[C@H]1CCn2nc(-c3ccnc(C4CC4)c3)cc21 [Compound I-555a, (S)-N-(2-(2-Cyclopropylpyridin-4-yl)-5,6-dihydro-4H-pyrrolo[1,2-b]pyrazol-4-yl)-3-methyl-1-(trifluoromethyl)-1H-pyrazole-4-carboxamide]
Cc1nn(C(F)(F)F)cc1C(=O)N[C@H]1CCn2nc(-c3ccnc(C(F)(F)F)c3)cc21 [Compound I-556a]
Cc1nn(C(F)(F)F)cc1C(=O)N[C@H]1CCCc2oc(-c3ccnc(C(F)(F)F)c3)nc21 [Compound I-557a, (S)-3-Methyl-1-(trifluoromethyl)-N-(2-(2-(trifluoromethyl)pyridin-4-yl)-4,5,6,7-tetrahydrobenzo[d]oxazol-4-yl)-1H-pyrazole-4-carboxamide]
O=C(N[C@H]1CCn2nc(-c3cc(C(F)(F)F)ncc3F)cc21)C12CC(CC(F)F)(C1)C2 [Compound I-558a, (S)-3-(2,2-Difluoroethyl)-N-(2-(5-fluoro-2-(trifluoromethyl)pyridin-4-yl)-5,6-dihydro-4H-pyrrolo[1,2-b]pyrazol-4-yl)bicyclo[1.1.1]pentane-1-carboxamide]
O=C(N[C@H]1CCn2nc(-c3cc(C4CC4)ncc3F)cc21)C12CC(C(F)(F)F)(C1)C2 [Compound I-559a, (S)-N-(2-(2-Cyclopropyl-5-fluoropyridin-4-yl)-5,6-dihydro-4H-pyrrolo[1,2-b]pyrazol-4-yl)-3-(trifluoromethyl)bicyclo[1.1.1]pentane-1-carboxamide]
COc1cc(C(=O)N[C@H]2CCn3nc(-c4cc(OC)ncc4F)cc32)ccn1 [Compound I-560a, (S)-N-(2-(5-Fluoro-2-methoxypyridin-4-yl)-5,6-dihydro-4H-pyrrolo[1,2-b]pyrazol-4-yl)-2-methoxyisonicotinamide]
COc1cc(F)cc(C(=O)N[C@H]2CCc3nn(-c4ccnc(C(F)(F)F)c4)cc32)c1 [Compound I-561a, (S)-3-Fluoro-5-methoxy-N-(2-(2-(trifluoromethyl)pyridin-4-yl)-2,4,5,6-tetrahydrocyclopenta[c]pyrazol-4-yl)benzamide]
O=C(N[C@H]1CCc2nn(-c3ccnc(C(F)(F)F)c3)cc21)c1cc(F)cc(C2CC2)c1 [Compound I-562a, (S)-3-Cyclopropyl-5-fluoro-N-(2-(2-(trifluoromethyl)pyridin-4-yl)-2,4,5,6-tetrahydrocyclopenta[c]pyrazol-4-yl)benzamide]
CC(C)(O)c1cc(F)cc(C(=O)N[C@H]2CCc3nn(-c4ccnc(C(F)(F)F)c4)cc32)c1 [Compound I-563a, (S)-3-Fluoro-5-(2-hydroxypropan-2-yl)-N-(2-(2-(trifluoromethyl)pyridin-4-yl)-2,4,5,6-tetrahydrocyclopenta[c]pyrazol-4-yl)benzamide]
O=C(N[C@H]1CCc2nn(-c3ccnc(C(F)(F)F)c3)cc21)c1cnc(C(F)(F)F)cn1 [Compound I-564a, (S)-5-(Trifluoromethyl)-N-(2-(2-(trifluoromethyl)pyridin-4-yl)-2,4,5,6-tetrahydrocyclopenta[c]pyrazol-4-yl)pyrazine-2-carboxamide]
O=C(N[C@H]1CCc2nn(-c3ccnc(C(F)(F)F)c3)cc21)c1cncc(C(F)(F)F)n1 [Compound I-565a, (S)-6-(Trifluoromethyl)-N-(2-(2-(trifluoromethyl)pyridin-4-yl)-2,4,5,6-tetrahydrocyclopenta[c]pyrazol-4-yl)pyrazine-2-carboxamide]
O=C(N[C@H]1CCc2nn(-c3ccnc(C(F)(F)F)c3)cc21)c1cnn(C(F)(F)F)c1 [Compound I-566a, (S)-1-(Trifluoromethyl)-N-(2-(2-(trifluoromethyl)pyridin-4-yl)-2,4,5,6-tetrahydrocyclopenta[c]pyrazol-4-yl)-1H-pyrazole-4-carboxamide]
COc1cc(F)cc(C(=O)N[C@H]2CCn3nc(-c4ccnc(C(F)(F)F)c4)cc32)c1 [Compound I-567a, (S)-3-Fluoro-5-methoxy-N-(2-(2-(trifluoromethyl)pyridin-4-yl)-5,6-dihydro-4H-pyrrolo[1,2-b]pyrazol-4-yl)benzamide]
CCOc1cc(F)cc(C(=O)N[C@H]2CCn3nc(-c4ccnc(C(F)(F)F)c4)cc32)c1 [Compound I-568a, (S)-3-Ethoxy-5-fluoro-N-(2-(2-(trifluoromethyl)pyridin-4-yl)-5,6-dihydro-4H-pyrrolo[1,2-b]pyrazol-4-yl)benzamide]
O=C(N[C@H]1CCn2nc(-c3ccnc(C(F)(F)F)c3)cc21)c1cc(F)cc(C2CC2)c1 [Compound I-569a, (S)-3-Cyclopropyl-5-fluoro-N-(2-(2-(trifluoromethyl)pyridin-4-yl)-5,6-dihydro-4H-pyrrolo[1,2-b]pyrazol-4-yl)benzamide]
CC(C)(O)c1cc(F)cc(C(=O)N[C@H]2CCn3nc(-c4ccnc(C(F)(F)F)c4)cc32)c1 [Compound I-570a, (S)-3-Fluoro-5-(2-hydroxypropan-2-yl)-N-(2-(2-(trifluoromethyl)pyridin-4-yl)-5,6-dihydro-4H-pyrrolo[1,2-b]pyrazol-4-yl)benzamide]
O=C(N[C@H]1CCn2nc(-c3ccnc(C(F)(F)F)c3)cc21)c1cnc(C(F)(F)F)cn1 [Compound I-571a, (S)-5-(Trifluoromethyl)-N-(2-(2-(trifluoromethyl)pyridin-4-yl)-5,6-dihydro-4H-pyrrolo[1,2-b]pyrazol-4-yl)pyrazine-2-carboxamide]
O=C(N[C@H]1CCn2nc(-c3ccnc(C(F)(F)F)c3)cc21)c1cnn(C(F)(F)F)c1 [Compound I-573a, (S)-1-(Trifluoromethyl)-N-(2-(2-(trifluoromethyl)pyridin-4-yl)-5,6-dihydro-4H-pyrrolo[1,2-b]pyrazol-4-yl)-1H-pyrazole-4-carboxamide]
CCOc1cc(F)cc(C(=O)N[C@H]2CCn3nc(-c4cc(OC)ncc4F)cc32)c1 [Compound I-574a, (S)-3-Ethoxy-5-fluoro-N-(2-(5-fluoro-2-methoxypyridin-4-yl)-5,6-dihydro-4H-pyrrolo[1,2-b]pyrazol-4-yl)benzamide]
COc1cc(-c2cc3n(n2)CC[C@@H]3NC(=O)c2cnc(C(F)(F)F)cn2)c(F)cn1 [Compound I-575a, (S)-N-(2-(5-Fluoro-2-methoxypyridin-4-yl)-5,6-dihydro-4H-pyrrolo[1,2-b]pyrazol-4-yl)-5-(trifluoromethyl)pyrazine-2-carboxamide]
COc1cc(-c2cc3n(n2)CC[C@@H]3NC(=O)c2cncc(C(F)(F)F)n2)c(F)cn1 [Compound I-576a, (S)-N-(2-(5-Fluoro-2-methoxypyridin-4-yl)-5,6-dihydro-4H-pyrrolo[1,2-b]pyrazol-4-yl)-6-(trifluoromethyl)pyrazine-2-carboxamide]
